# From PMC12068008 (International Journal of Molecular Sciences, 2024)
# Where “and” joins values, the source holds several entries; their conditions need not be identical. Equal entries are not always repeated.
# Legend:
# [1] = Metal-chelating assay, binding stoichiometry (molar ratio method), Fe2+; type: physicochemical; details: ethanol, 30 min, compound 5 × 10^−5 M
# Method: (§1) Binding stoichiometry was determined using the molar ratio method, with increasing concentrations of metal ions (from 0 to 1.5 × 10^−4 M) (Figures S1 and S2). Absorption spectra were collected 30 min after mixing. The change in absorption at the wavelength of maximum absorbance for the formed complex was plotted against the metal ion (M^2+ = Cu^2+, Zn^2+, and Fe^2+) to compound ratio (cM^2+/ccompound) and is presented in Figure 3. This graph allows the determination of the binding ratio between the newly synthesized compounds and metal ions. […] In contrast, the results for Fe^2+ indicate that only one Fe^2+ ion can bind to both compounds.
# (§2) The metal-chelating ability of synthesized compounds in ethanol was assessed using UV/Vis spectrophotometer (Lambda 35, Perkin Elmer) recording spectra over a wavelength range of 230–600 nm in a 1 cm quartz cell. The mixture of compound at 5 × 10^−5 M of final concentration and metal ions at 1 × 10^−4 M of final concentration was incubated for 30 min at room temperature. The tested temperature was 25 °C. […]
# (§3) The binding stoichiometry was assessed by adding increasing concentrations of metal ions (0–1.5 × 10^−4 M) to a fixed concentration of compound (5 × 10^−5 M) and incubating the mixture for 30 min at room temperature. The spectra were then measured as described above, and the ligand-to-metal chelation ratio in the complex was calculated.
# HeLa cells = experiment: SRB assay, HeLa cells; type: cell-based; details: for Viability of HeLa cells: % of control, concentrations 1 × 10^−6 to 1 × 10^−4 M (not assigned to the values for 2a); for IC50: Homo sapiens, HeLa, 72 h after treatment, SRB, read-out: IC50 HeLa
# Method: (§4) All cell lines were cultured in Dulbecco’s Modified Eagle’s Medium (DMEM) with 4500 mg/L glucose and L-glutamine (Capricorn Scientific, Ebsdorfergrund, Germany), supplemented with 10% foetal bovine serum (PAN-Biotech, Aidenbach, Germany), 10,000 U/mL penicillin, and 10 mg/mL streptomycin solution (Capricorn Scientific) under standard conditions at 37 °C in a humidified 5% CO2 atmosphere (ESCO, Lifesciences Group, Singapore).
# Cells were seeded on a 96-well plate (Thermo Fisher Scientific, Waltham, MA, USA) at 2 × 10^3 cells per well in DMEM medium. For the analysis of the concentration- and time-dependent effect of the analysed compounds, cell monolayers were treated 24 h after seeding with concentrations 1 × 10^−6, 1 × 10^−5, and 1 × 10^−4 M for 24, 48, or 72 h. Cell viability was detected using sulforhodamine B (SRB) assay, based on the staining of cellular proteins. The assay was performed according to the procedure described by Skehan et al.. The cells were fixed with 10% trichloroacetic acid (TCA, CARLO ERBA Reagents GmbH, Emmendingen, Germany) for 1 h at 4 °C, washed with water, and stained for 15 min with 0.4% SRB (Sigma-Aldrich Chemie GmbH, Steinheim, Germany) in 1% acetic acid. The unbound SRB dye was rinsed with 1% acetic acid, while the protein-bound dye was extracted with a 10 mM Tris base (Sigma-Aldrich). […] The results were expressed as a percentage of the control, where the cell growth of the control is set to 100%. […] The selectivity index (SI) was determined according to the following formula:(2) SI=IC50 for fibroblast cell line/IC50 for tumour cell line
# (§5) The assay was performed two times in 4 replicates for every experimental group. The statistical significance of differences between treated and untreated cells was estimated by the independent Student’s t-test, with the level of significance set at p < 0.05.
# [2] = Metal-chelating assay, binding stoichiometry (molar ratio method), Cu2+; type: physicochemical; details: ethanol, 30 min, compound 5 × 10^−5 M, one ion coordinates with two molecules
# Method: as §1, §2, §3
# MDA-MB-468 cells = experiment: SRB assay, MDA-MB-468 cells; type: cell-based, human; details: for IC50: Homo sapiens, MDA-MB-468, 72 h after treatment, SRB, read-out: IC50 MDA-468
# Method: as §4, with “Two human breast cancer cell lines, MDA-MB-231 (HTB-26) and MDA-MB-468 (HTB-132), human cervical cancer cell line HeLa (CCL-2), and MRC-5 (CCL-171) fibroblasts were purchased from the American Type Culture Collection (ATCC, Manassas, VA, USA). All” for “All”
# Cells were seeded on a 96-well plate (Thermo Fisher Scientific, Waltham, MA, USA) at 2 × 10^3 cells per well in DMEM medium. For the analysis of the concentration- and time-dependent effect of the analysed compounds, cell monolayers were treated 24 h after seeding with concentrations 1 × 10^−6, 1 × 10^−5, and 1 × 10^−4 M for 24, 48, or 72 h. Cell viability was detected using sulforhodamine B (SRB) assay, based on the staining of cellular proteins. The assay was performed according to the procedure described by Skehan et al.. The cells were fixed with 10% trichloroacetic acid (TCA, CARLO ERBA Reagents GmbH, Emmendingen, Germany) for 1 h at 4 °C, washed with water, and stained for 15 min with 0.4% SRB (Sigma-Aldrich Chemie GmbH, Steinheim, Germany) in 1% acetic acid. The unbound SRB dye was rinsed with 1% acetic acid, while the protein-bound dye was extracted with a 10 mM Tris base (Sigma-Aldrich). The absorbance was measured at 550 nm with a reference wavelength of 690 nm in a microplate reader (Wallac, VICTOR2 1420 Multilabel counter, PerkinElmer, Turku, Finland). The results were expressed as a percentage of the control, where the cell growth of the control is set to 100%. IC50, defined as the concentration that caused a 50% loss of cell growth, was calculated by non-linear regression analysis with the ED50plus v1.0 software. The selectivity index (SI) was determined according to the following formula:(2) SI=IC50 for fibroblast cell line/IC50 for tumour cell line
# as §5
# physchem = type: physicochemical; details: n-octanol/deionized water, shake flask, 25 °C, 1 × 10^−4 M, read-out: logP, experimentally obtained
# Method: To measure the lipophilicity (expressed as the partition coefficient) of the synthesized compounds and their constituents, using a “shake-flask” method, a two-phase system composed of n-octanol and deionized water was used. The stock solutions of the compounds were diluted with water to the concentration of 1 × 10^−4 M, and this solution was used for further investigation. […] The concentration of the compounds was calculated from their extinction coefficient at 260 nm that was previously determined.
# MRC-5 cells = experiment: SRB assay, MRC-5 cells; type: cell-based; details: Homo sapiens, MRC5; 72 h after treatment, SRB; read-out: IC50 MRC
# Method: as §4, with “Two human breast cancer cell lines, MDA-MB-231 (HTB-26) and MDA-MB-468 (HTB-132), human cervical cancer cell line HeLa (CCL-2), and MRC-5 (CCL-171) fibroblasts were purchased from the American Type Culture Collection (ATCC, Manassas, VA, USA). All” for “All”
# Cells were seeded on a 96-well plate (Thermo Fisher Scientific, Waltham, MA, USA) at 2 × 10^3 cells per well in DMEM medium. For the analysis of the concentration- and time-dependent effect of the analysed compounds, cell monolayers were treated 24 h after seeding with concentrations 1 × 10^−6, 1 × 10^−5, and 1 × 10^−4 M for 24, 48, or 72 h. Cell viability was detected using sulforhodamine B (SRB) assay, based on the staining of cellular proteins. The assay was performed according to the procedure described by Skehan et al.. The cells were fixed with 10% trichloroacetic acid (TCA, CARLO ERBA Reagents GmbH, Emmendingen, Germany) for 1 h at 4 °C, washed with water, and stained for 15 min with 0.4% SRB (Sigma-Aldrich Chemie GmbH, Steinheim, Germany) in 1% acetic acid. The unbound SRB dye was rinsed with 1% acetic acid, while the protein-bound dye was extracted with a 10 mM Tris base (Sigma-Aldrich). The absorbance was measured at 550 nm with a reference wavelength of 690 nm in a microplate reader (Wallac, VICTOR2 1420 Multilabel counter, PerkinElmer, Turku, Finland). The results were expressed as a percentage of the control, where the cell growth of the control is set to 100%. […] The selectivity index (SI) was determined according to the following formula:(2) SI=IC50 for fibroblast cell line/IC50 for tumour cell line […]
Structure (SMILES),binding stoichiometry Fe^2+ (ions bound) [1],Viability of HeLa cells (HeLa cells; 48 h),Viability of HeLa cells (HeLa cells; 72 h),IC50 (HeLa cells) [µM],binding stoichiometry Cu^2+ [2],IC50 (MDA-MB-468 cells) [µM],logP at 30 min (physchem),IC50 (MRC-5 cells) [µM],"highest inhibition of MDA-468 cells (MDA-MB-468 cells; highest concentration, 72 h) [%]"
O=c1c(O)c(-c2ccc(O)c(O)c2)oc2c(CN3CCc4ccccc4C3)c(O)cc(O)c12 [Compound 2a],one,43% and 37%,35% and 29%,53.5 ± 2.67,2,> 200,3.07,55.7 ± 2.78,–
COc1cc2c(cc1OC)CN(Cc1c(O)cc(O)c3c(=O)c(O)c(-c4ccc(O)c(O)c4)oc13)CC2 [Compound 2b],one,–,–,19.5 ± 0.97,2,109 ± 5,2.47,16.6 ± 0.83,56.56
